Patent publication US20160346406A1, “METHOD FOR INCREASING THE INTRAOCULAR PRESSURE IN AN ANIMAL” (INSTITUT NATIONAL DE LA SANTE ET DE LA RECHERCHE MEDICALE …, priority 2011, published 2016)
“Also recorded” adds a separate entry of the source.

Columns and labels:
Long-Evans rats [1] = assay: Intra-ocular pressure monitoring after two subconjunctival injections of 0.1% BAK; type: in vivo, rat
Method: Six male 8-week-old Long-Evans rats weighing 300-350 g were used. At D0, first subconjunctival injection of 0.1% BAK (100 μL) was performed in the right eye whereas the left eye received 0.9% NaCl vehicle only as control. A second injection was performed seven days after following the same protocol. Animals were daily monitored for intra-ocular pressure using a handheld tonometer, without sedation.
Six male 8-week-old Long-Evans rats weighing 300-350 g were used. Animals were kept in pathogen-free conditions with food and water available ad libitum and housed in a 12-h light/12-h dark cycle. Ocular integrity was checked using the slit lamp biomicroscope. At D0, first subconjunctival injection of 0.1% BAK (100 μL) was performed in the right eye whereas the left eye received PBS only as control. A second injection was performed seven days after following the same protocol. Animals were daily monitored for intra-ocular pressure using a handheld tonometer (TonoLab, Medtronics, Jacksonville, Fla., USA) without sedation. All experiments were conducted in accordance with the Association for Research in Vision and Ophthalmology for the Use of Animals in Ophthalmic research.

trabecular cells = assay: Ex vivo trabecular cell apoptosis (TUNEL labelling); type: in vivo, rat; conditions: BAK-injected eyes vs controls, end of experiments; P<0.01
Method: At the end of the experiments, animals were euthanized and the eyes were immediately conditioned for TUNEL labelling. Eyes were fixed in 4% paraformaldehyde, embedded in an optimal cutting-temperature compound (OCT, Tissue-Tek, Miles Inc, Bayer Diagnostic, Puteaux, France) and cut into 15-μm cryosections. A terminal deoxynucleotidyl transferase-mediated dUTP nick-end labelling (TUNEL) assay (Roche Diagnostics, Meylan, France) was performed to detect apoptosis in rat ocular tissues following the manufacturer's instructions. Specimens were mounted in aqueous mounting medium with DAPI to be further analyzed using light epifluorescence microscopy.

ocular surface = assay: In vivo assessment of BAK injection toxicity to the ocular surface (in vivo confocal microscopy, IVCM)
Method: In vivo confocal microscopy (IVCM) using the Heidelberg Retina Tomograph II/Rostock Cornea Module (Heidelberg Engineering GmbH, Heidelberg, Germany) laser-scanning was carried out to assess putative damage to the ocular surface. Images size was 400 per 400 hundred pixels with a lateral resolution of 1 micrometer and an axial resolution of 2 micrometers. […] IVCM scores were used to evaluate ocular surface toxicity profiles in the 4 groups (vehicle, 0.01% BAK, 0.05% BAK, and 0.1% BAK) in different histological regions (superficial epithelium, basal epithelium, anterior stroma, limb and conjunctival stroma), 30 days after the first BAK administration (see Table 1). […] [table]

[2] = Dose-dependent effects of subconjunctival injections of BAK on intraocular pressure; type: in vivo; conditions: 3 subconjunctival injections (0.15 mL, each 48 h)
Method: A series of 3 subconjunctival injections with 0.01% BAK (n=3), 0.05% BAK (n=3), 0.1%, BAK (n=6) or the vehicle (n=4) was performed (0.15 mL, each 48 h during 6 days) in the right eye of animals. Intraocular pressure was measured using a handled tonometer every two days from D0 to D28. Intraocular pressure is expressed as the difference between the treated eye (right) and the left control eye.

Long-Evans rats [3] = assay: In vivo outflow facility measurement; design: species or system rat; conditions: six days after second injection of 0.1% BAK; infusion 0.1, 0.2, 0.3 μL/min; vs vehicle-injected control eyes
Method: Six days after the second injection of BAK, trabecular outflow facility was measured in vivo under general anaesthesia. The eyes were anteriorly canulated with a 30-G needle connected by tubing to a 1 mL syringe filled with PBS and loaded into a microdialysis infusion pump. Intraocular pressure was measured after a 10-min stabilization period for three different infusion flow rates (0.1, 0.2, and 0.3 μL/min). Aqueous humor outflow facility was calculated as the reciprocal of the slope of the respective ocular pressure/flow rate curves. Outflow facility (OF) was decreased in BAK-injected eyes as compared to vehicle-injected control eyes.
Six days after the second injection of BAK, trabecular outflow facility was measured in vivo under general anaesthesia (intraperitoneal injection of ketamine 75 mg/kg and xylazine 10 mg/kg). Briefly, the eyes were anteriorly canulated with a 30-G needle connected by tubing to a 1 mL syringe filled with PBS and loaded into a microdialysis infusion pump (World Precision instruments). Intraocular pressure was measured after a 10-min stabilization period for three different infusion flow rates (0.1, 0.2, and 0.3 μL/min). Aqueous humor outflow facility (μL/min/mmHg) was calculated as the reciprocal of the slope of the respective ocular pressure/flow rate curves.

benzalkonium chloride [BAK]
intra-ocular pressure after second injection (Long-Evans rats [1]; 0.1% BAK (100 μL) subconjunctival at D0 and seven days after, vs control eyes, D9 and D14, P<0.01): significantly rose and remained significantly elevated; also recorded: Significant difference; also recorded: became significant | intra-ocular pressure after first injection (Long-Evans rats [1]; 0.1% BAK (100 μL) subconjunctival, right eye, vs vehicle control eye, D7): no effect; also recorded: slight increase | trabecular apoptotic cells (TUNEL labelling) (trabecular cells): Significant difference; also recorded: increased | IVCM subscore: limbus and conjunctiva, animals with peripheral vasodilatation (ocular surface; 0.01% BAK (n=3)): one | IVCM subscore: limbus and conjunctiva, animals with peripheral vasodilatation (ocular surface; 0.1% BAK (n=6)): three | IVCM subscore: basal epithelium (ocular surface; 4 groups (vehicle, 0.01%, 0.05%, 0.1% BAK)): unchanged | IVCM subscore: anterior stroma (ocular surface; BAK 0.1% group): trend for hyperplasia of the subbasal nerve plexi | IVCM: posterior stroma and endothelium toxicity (ocular surface; all BAK concentrations): no toxicity was found | IVCM subscore: superficial epithelium (ocular surface; all the animals): slight epithelial swelling | overall IVCM score (ocular surface toxicity) (ocular surface; vehicle, 0.01%, 0.05% and 0.1% BAK groups, 30 days after first BAK administration, Kruskal Wallis test, p>0.05): No significant difference; also recorded: No statistical difference | anterior eye abnormality / ocular surface pathological changes (ocular surface; whatever the BAK concentration): Neither anterior eye abnormality nor ocular surface pathological changes were found | intraocular pressure, difference between treated eye and left control eye ([2]; 0.05% BAK, D9): significant ocular hypertension | intraocular pressure, difference between treated eye and left control eye ([2]; 0.1% BAK, D7, D11 and D14): significant increase | intraocular pressure, difference between treated eye and left control eye ([2]; other times or BAK concentrations (0.01% BAK), D0 to D28): did not show significant changes | trabecular (aqueous humor) outflow facility (Long-Evans rats [3]): decreased; also recorded: low trabecular outflow facility
